According to patent US8883841B2, “Oncogenic ras-specific cytotoxic compound and methods of use thereof” (The Board of Regents of the University of Texas System, priority 2005, dated 2014):
Read-outs that look alike come from different tables or passages of the source.

Assays:
H2087 = assay: Cell viability, H2087 lung cancer cells; format: cell-based, human; conditions: Homo sapiens, NCI-H2087; H2087, Lung; read-out: IC50 (−LogM) (converted)
SKOV3 = assay: Cell viability, SKOV3 ovary cancer cells; format: cell-based; conditions: Homo sapiens, SK-OV-3
SR = assay: NCI in-vitro testing, SR (Leukemia); format: cell-based; conditions: for GI50: Homo sapiens
M14 = assay: NCI in-vitro testing, M14 (Melanoma)
RPMI-8226 = assay: NCI in-vitro testing, RPMI-8226 (Leukemia)
UO-31 = assay: NCI in-vitro testing, UO-31 (Renal Cancer)
SW-620 = assay: NCI in-vitro testing, SW-620 (Colon Cancer)
HCC-2998 = assay: NCI in-vitro testing, HCC-2998 (Colon Cancer)
SK-OV-3 = assay: NCI in-vitro testing, SK-OV-3 (Ovarian Cancer)
MDA-MB-435 = assay: NCI in-vitro testing, MDA-MB-435 (Breast Cancer)
NCI/ADR-RES = assay: NCI in-vitro testing, NCI/ADR-RES (Breast Cancer)
NCI-H226 = assay: NCI in-vitro testing, NCI-H226 (Non-Small Cell Lung Cancer)

OCc1cn(Cc2ccc(Cl)cc2)c2ccccc12 [Oncrasin K060, 1H-Indole-3-methanol, 1-[(4-chlorophenyl)methyl]-]
IC50 (H2087): 25.1 µM | IC50 (SKOV3): 0.631 µM | TGI (SR): 1.26E−8 Molar | GI50 (SR; Leukemia, NCI Mean Graphs, read-out: Log10 GI50 (converted)): < 0.01 µM | GI50 (SR; read-out: GI50): < 1 µM | Percent Growth (SR; Log10 Concentration −4.0 Molar): −71% | Percent Growth (SR; Log10 Concentration −5.0 Molar): −18% | Percent Growth (SR; Log10 Concentration −6.0 Molar): −71% | Percent Growth (SR; Log10 Concentration −7.0 Molar): −26% | Percent Growth (SR; Log10 Concentration −8.0 Molar): 43% | GI50 (M14; Homo sapiens, M14): 6.16 µM | CC50 (M14; Homo sapiens, M14, read-out: LC50): 55.9 µM | GI50 (M14; Homo sapiens, M14, read-out: Log10 GI50 (converted)): 5.13 µM | TGI (M14; M14): 2.03E−5 Molar | Percent Growth (M14; M14, Log10 Concentration −4.0 Molar): −79% | Percent Growth (M14; M14, Log10 Concentration −5.0 Molar): 35% | Percent Growth (M14; M14, Log10 Concentration −6.0 Molar): 87% | Percent Growth (M14; M14, Log10 Concentration −7.0 Molar): 94% | Percent Growth (M14; M14, Log10 Concentration −8.0 Molar): 95% | GI50 (RPMI-8226; Homo sapiens, RPMI-8226): 0.372 µM | CC50 (RPMI-8226; Homo sapiens, RPMI-8226, read-out: LC50): > 100 µM | GI50 (RPMI-8226; Homo sapiens, RPMI-8226, read-out: Log10 GI50 (converted)): 0.372 µM | TGI (RPMI-8226; RPMI-8226): 3.19E−6 Molar | Percent Growth (RPMI-8226; RPMI-8226, Log10 Concentration −4.0 Molar): −35% | Percent Growth (RPMI-8226; RPMI-8226, Log10 Concentration −5.0 Molar): −23% | Percent Growth (RPMI-8226; RPMI-8226, Log10 Concentration −6.0 Molar): 24% | Percent Growth (RPMI-8226; RPMI-8226, Log10 Concentration −7.0 Molar): 85% | Percent Growth (RPMI-8226; RPMI-8226, Log10 Concentration −8.0 Molar): 119% | GI50 (UO-31; Homo sapiens, UO-31): 1.58 µM | CC50 (UO-31; Homo sapiens, UO-31, read-out: LC50): > 100 µM | GI50 (UO-31; Homo sapiens, UO-31, read-out: Log10 GI50 (converted)): 1.58 µM | TGI (UO-31; UO-31): 1.55E−5 Molar | Percent Growth (UO-31; UO-31, Log10 Concentration −4.0 Molar): −42% | Percent Growth (UO-31; UO-31, Log10 Concentration −5.0 Molar): 10% | Percent Growth (UO-31; UO-31, Log10 Concentration −6.0 Molar): 60% | Percent Growth (UO-31; UO-31, Log10 Concentration −7.0 Molar): 80% | Percent Growth (UO-31; UO-31, Log10 Concentration −8.0 Molar): 90% | GI50 (SW-620; Homo sapiens, SW-620): 0.571 µM | CC50 (SW-620; Homo sapiens, SW-620, read-out: LC50): > 100 µM | GI50 (SW-620; Homo sapiens, SW-620, read-out: Log10 GI50 (converted)): 0.575 µM | TGI (SW-620; SW-620): 1.80E−5 Molar | Percent Growth (SW-620; SW-620, Log10 Concentration −4.0 Molar): −46% | Percent Growth (SW-620; SW-620, Log10 Concentration −5.0 Molar): 16% | Percent Growth (SW-620; SW-620, Log10 Concentration −6.0 Molar): 39% | Percent Growth (SW-620; SW-620, Log10 Concentration −7.0 Molar): 83% | Percent Growth (SW-620; SW-620, Log10 Concentration −8.0 Molar): 94% | TGI (HCC-2998; HCC-2998): 2.04E−5 Molar | Percent Growth (HCC-2998; HCC-2998, Log10 Concentration −4.0 Molar): −97% | Percent Growth (HCC-2998; HCC-2998, Log10 Concentration −5.0 Molar): 43% | Percent Growth (HCC-2998; HCC-2998, Log10 Concentration −6.0 Molar): 62% | Percent Growth (HCC-2998; HCC-2998, Log10 Concentration −7.0 Molar): 86% | Percent Growth (HCC-2998; HCC-2998, Log10 Concentration −8.0 Molar): 95% | GI50 (HCC-2998; Homo sapiens, HCC 2998): 4.33 µM | CC50 (HCC-2998; Homo sapiens, HCC 2998, read-out: LC50): 45.2 µM | GI50 (HCC-2998; Homo sapiens, HCC 2998, read-out: Log10 GI50 (converted)): 4.37 µM | GI50 (SK-OV-3; Homo sapiens, SK-OV-3): 1.82 µM | CC50 (SK-OV-3; Homo sapiens, SK-OV-3, read-out: LC50): > 100 µM | GI50 (SK-OV-3; Homo sapiens, SK-OV-3, read-out: Log10 GI50 (converted)): 1.82 µM | TGI (SK-OV-3; SK-OV-3): 2.96E−5 Molar | Percent Growth (SK-OV-3; SK-OV-3, Log10 Concentration −4.0 Molar): −16% | Percent Growth (SK-OV-3; SK-OV-3, Log10 Concentration −5.0 Molar): 16% | Percent Growth (SK-OV-3; SK-OV-3, Log10 Concentration −6.0 Molar): 52% | Percent Growth (SK-OV-3; SK-OV-3, Log10 Concentration −7.0 Molar): 85% | Percent Growth (SK-OV-3; SK-OV-3, Log10 Concentration −8.0 Molar): 96% | GI50 (MDA-MB-435; Homo sapiens, MDA-MB-435): 19.3 µM | CC50 (MDA-MB-435; Homo sapiens, MDA-MB-435, read-out: LC50): > 100 µM | GI50 (MDA-MB-435; Homo sapiens, MDA-MB-435, read-out: Log10 GI50 (converted)): 19.1 µM | TGI (MDA-MB-435; MDA-MB-435): 5.47E−5 Molar | Percent Growth (MDA-MB-435; MDA-MB-435, Log10 Concentration −4.0 Molar): −29% | Percent Growth (MDA-MB-435; MDA-MB-435, Log10 Concentration −5.0 Molar): 81% | Percent Growth (MDA-MB-435; MDA-MB-435, Log10 Concentration −6.0 Molar): 96% | Percent Growth (MDA-MB-435; MDA-MB-435, Log10 Concentration −7.0 Molar): 100% | Percent Growth (MDA-MB-435; MDA-MB-435, Log10 Concentration −8.0 Molar): 102% | TGI (NCI/ADR-RES): 3.32E−5 Molar | GI50 (NCI/ADR-RES; Homo sapiens): 9.22 µM | CC50 (NCI/ADR-RES; Homo sapiens, read-out: LC50): > 100 µM | GI50 (NCI/ADR-RES; Homo sapiens, read-out: Log10 GI50 (converted)): 9.12 µM | Percent Growth (NCI/ADR-RES; Log10 Concentration −4.0 Molar): −45% | Percent Growth (NCI/ADR-RES; Log10 Concentration −5.0 Molar): 49% | Percent Growth (NCI/ADR-RES; Log10 Concentration −6.0 Molar): 86% | Percent Growth (NCI/ADR-RES; Log10 Concentration −7.0 Molar): 94% | Percent Growth (NCI/ADR-RES; Log10 Concentration −8.0 Molar): 103% | GI50 (NCI-H226; Homo sapiens, NCI-H226): < 0.01 µM | CC50 (NCI-H226; Homo sapiens, NCI-H226, read-out: LC50): 0.501 µM | GI50 (NCI-H226; Homo sapiens, NCI-H226, read-out: Log10 GI50 (converted)): < 0.01 µM | TGI (NCI-H226; NCI-H226): 4.48E−8 Molar | Percent Growth (NCI-H226; NCI-H226, Log10 Concentration −4.0 Molar): −65% | Percent Growth (NCI-H226; NCI-H226, Log10 Concentration −5.0 Molar): −68% | Percent Growth (NCI-H226; NCI-H226, Log10 Concentration −6.0 Molar): −82% | Percent Growth (NCI-H226; NCI-H226, Log10 Concentration −7.0 Molar): −22% | Percent Growth (NCI-H226; NCI-H226, Log10 Concentration −8.0 Molar): 40%
